The text below walks through data of patent US8110398B2, “Stable cell lines and methods for evaluating gastrointestinal absorption of chemicals” (Absorption Systems Group, LLC, priority 2006, dated 2012).

One series relates to C2BBE1 cells. To be noted: reference values; cited from earlier work.
The conditions of series [1]: reference values; cited from earlier work.
The next series deals with P-gp (Homo sapiens, UniProt P08183). Kind of series: Calcein-AM assay. The conditions noted are these: for RFU/μg of protein: 30 minutes. The method, then:
Calcein-AM assay. To determine activity of the P-gp protein, calcein-AM assays were conducted.
To determine the P-gp activity, cells were plated in 96-well tissue culture plates and cultured for 48. After 48 hours, cell culture media was removed and the cells were washed with phosphate buffered saline solution (PBS). After washing, cells were incubated with 1 μM calcein-AM for 30 minutes. […] After incubation with calcein-AM, the cells were rinsed with fresh control buffer and fluorescence was measured using a Fluo-star fluorescence plate reader (BMG Lab Technologies, N.C.) with excitation and emission filters set at wavelengths of 485 nm and 538 nm, respectively.
Calcein-AM efflux is not mediated by BCRP. Therefore, any increase in calcein-AM uptake by the cells can be attributed to P-gp inhibition. The cells were plated in 96-well tissue culture plates and cultured for 48 hours. After 48 hours, cell culture media was removed and the cells were washed with phosphate buffered saline solution (PBS). After washing, cells were incubated with 1 μM calcein-AM for 30 minutes. […] After incubation with calcein-AM, the cells were rinsed with fresh control buffer and fluorescence was measured using a Fluo-star fluorescence plate reader (BMG Lab Technologies, N.C.) with excitation and emission filters set at wavelengths of 485 nm and 538 nm, respectively. The assay was carried out after each clone had been passaged 9 times.

A further series concerns MRP2 mRNA. Kind of series: RT-PCR of MRP2 mRNA expression in transduced C2BBe1 cells. It counts as cell-based, human. The conditions noted are these: for Percent decrease in ratio compared to control: MRP2 mRNA vs vector control; for Ratio of MRP2 band intensity to β-actin band intensity: RT-PCR, C2BBe1 cells, passages 2 to 5. The method, then:
RT-PCR. Total RNA was extracted from cells according to the following protocol. Cells were harvested from culture by centrifugation, resuspended in 1 ml of TRIzol® reagent (Invitrogen, Carlsbad, Calif.), and incubated at room temperature for 5 minutes with gentle shaking. The suspension was transferred to a 1.5 ml centrifuge tube, to which 200 μl of Chloroform was added, followed by an additional 5 minute incubation period with shaking. After incubation, the suspension was centrifuged at 12,000×g for 12 minutes at 4° C. The supernatant was transferred to a fresh, sterile 1.5 ml centrifuge tube, and supplemented with 0.5 ml of 2-propanaol per 1 ml of TRIzol reagent, and incubated for 10 minutes at room temperature. The mixture was then centrifuged at 12,000×g for an additional 12 minutes at 4° C. After centrifugation, the supernatant was removed and the pellet was washed with 75% ethanol. The sample was re-centrifuged at 7500×g for 5 minutes at 4° C., followed by the removal of the supernatant. The pellet was allowed to air dry at room temperature. The pellet was resuspended in pre-warmed (55° C.) nuclease-free water, and incubated at 55° C. for 10 minutes. RNA yield and purity were quantified by absorbance at 260 nm and 280 nm.
RT-PCR mixtures were set up as 50 μl samples containing buffer, 1-2 μg of RNA, 10 μM of Forward primer, 10 μM of Reverse primer, Taq polymerase, and water. Primers to amplify human P-gylcoprotein were as follows: P-gp Forward 5′-[…]-3′ (SEQ ID NO: 9); and, P-gp Reverse 5′-[…]-3′ (SEQ ID NO: 10). Primers to amplify human MRP2 were as follows: MRP2 Forward 5′-[…]-3′ (SEQ ID NO: 11); and, MRP2 Reverse 5′-[…]-3′ (SEQ ID NO: 12). Primes to amplify human BCRP were as follows: BCRP Forward 5′-[…] 3′ (SEQ ID NO: 13); and, BCRP Reverse 5′-[…] 3′ (SEQ ID NO: 14). Human β-actin was amplified in parallel as a positive control using the following primers: β-actin Forward 5′-[…]-3′ (SEQ ID NO: 15); and, β-actin Reverse 5′-[…]-3′ (SEQ ID NO: 16).
The PCR cycles proceeded in a programmable thermocycler with the following parameters: cDNA synthesis, 1 cycle, 55° C. for 30 minutes; denaturation, 1 cycle, 94° C. for 2 minutes; PCR amplification, 40 cycles of 94° C. for 15 seconds, 62° C. for 30 seconds, 72° C. for 1 minute; and, final extension, 1 cycle, 72° C. for 5 minutes. Amplification was confirmed by electrophoresis in 2% agarose gels.
For this example, gene expression of MRP2 in C2BBe1 cells was determined by observing both the MRP2 mRNA content as well as the protein content of the cells following viral transduction. To examine mRNA content, total cellular RNA was harvested and amplified by RT-PCR using primers specific to the MRP2 gene (SEQ ID NO: 11 and 12). The RT-PCR products were then analyzed after separation by electrophoresis on a 2% agarose gel.
Vector control (VC) cells were prepared from cells transducted with lentiviruses encoding a non-interfering nucleic acid sequence (SEQ ID NO 27), as described in Example 7. Methods were described in Example 1. […]

Sequence of P-gp (P08183 whole entry): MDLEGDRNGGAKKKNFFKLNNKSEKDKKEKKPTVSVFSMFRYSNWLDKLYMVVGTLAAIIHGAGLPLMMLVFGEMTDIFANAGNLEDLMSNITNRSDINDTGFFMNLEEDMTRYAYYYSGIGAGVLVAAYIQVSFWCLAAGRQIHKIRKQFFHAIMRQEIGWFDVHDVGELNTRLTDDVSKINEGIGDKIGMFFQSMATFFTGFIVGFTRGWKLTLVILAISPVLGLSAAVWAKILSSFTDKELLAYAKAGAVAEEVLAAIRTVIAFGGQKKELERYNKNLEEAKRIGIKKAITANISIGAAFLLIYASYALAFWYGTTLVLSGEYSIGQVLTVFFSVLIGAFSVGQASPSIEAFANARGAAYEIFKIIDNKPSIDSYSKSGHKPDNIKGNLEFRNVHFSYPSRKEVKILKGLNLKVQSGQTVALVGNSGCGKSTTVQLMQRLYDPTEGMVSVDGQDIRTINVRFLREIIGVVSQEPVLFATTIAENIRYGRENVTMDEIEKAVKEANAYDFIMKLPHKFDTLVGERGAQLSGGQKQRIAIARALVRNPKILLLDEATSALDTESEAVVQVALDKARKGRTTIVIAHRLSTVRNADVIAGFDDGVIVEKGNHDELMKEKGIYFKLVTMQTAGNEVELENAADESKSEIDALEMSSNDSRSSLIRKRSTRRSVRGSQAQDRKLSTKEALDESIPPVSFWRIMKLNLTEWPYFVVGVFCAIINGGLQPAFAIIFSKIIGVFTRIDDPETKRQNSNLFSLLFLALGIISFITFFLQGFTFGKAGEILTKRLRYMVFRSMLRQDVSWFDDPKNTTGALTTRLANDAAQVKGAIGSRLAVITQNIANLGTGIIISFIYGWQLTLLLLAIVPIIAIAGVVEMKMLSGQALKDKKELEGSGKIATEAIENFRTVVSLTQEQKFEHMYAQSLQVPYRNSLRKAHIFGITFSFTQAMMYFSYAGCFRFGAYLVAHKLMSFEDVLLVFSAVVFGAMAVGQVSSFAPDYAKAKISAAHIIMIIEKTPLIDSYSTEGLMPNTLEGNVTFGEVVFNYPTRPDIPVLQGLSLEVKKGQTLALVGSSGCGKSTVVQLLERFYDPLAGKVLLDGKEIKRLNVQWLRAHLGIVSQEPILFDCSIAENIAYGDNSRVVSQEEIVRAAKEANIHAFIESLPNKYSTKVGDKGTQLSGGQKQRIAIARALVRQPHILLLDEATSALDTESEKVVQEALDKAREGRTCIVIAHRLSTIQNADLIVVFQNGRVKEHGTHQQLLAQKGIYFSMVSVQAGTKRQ

Consider 1-Deamino-8-D-arginine, for which the “Papp in C2BBE1 cells” value in the series with C2BBE1 cells is on record as 0.13 10^−6 cm/s.
Regarding `CC(=O)Oc1ccccc1C(=O)O` [Acetylsalicylic acid], the “Papp in C2BBE1 cells” value with C2BBE1 cells is reported as 2.4 10^−6 cm/s. The “% Absorption in human” value in series [1] is reported as 100%.
On to `C=CCc1ccccc1OCC(O)CNC(C)C` (stereo not shown) [Alprenolol], for which the “Papp in C2BBE1 cells” value with C2BBE1 cells was 40.5 10^−6 cm/s. Further, the “% Absorption in human” value in series [1] is 93%.
For `NC(=O)CC[C@@H]1NC(=O)[C@H](Cc2ccccc2)NC(=O)[C@H](Cc2ccc(O)cc2)NC(=O)[C@@H](N)CSSC[C@@H](C(=O)N2CCC[C@H]2C(=O)N[C@@H](CCCN=C(N)N)C(=O)NCC(N)=O)NC(=O)[C@H](CC(N)=O)NC1=O` [Arginine-vasopressin], the “Papp in C2BBE1 cells” value in the series on C2BBE1 cells is given as 0.14 10^−6 cm/s. Further, in series [1], the “% Absorption in human” value is reported as 0%.
As for `C[C@]12C[C@H](O)[C@H]3[C@@H](CCC4=CC(=O)CC[C@@]43C)[C@@H]1CC[C@@H]2C(=O)CO` [Corticosterone], the “% Absorption in human” value in series [1] was 100%.
In the case of `C[C@@H]1C[C@H]2[C@@H]3CCC4=CC(=O)C=C[C@]4(C)[C@@]3(F)[C@@H](O)C[C@]2(C)[C@@]1(O)C(=O)CO` [Dexamethasone], the “% Absorption in human” value in series [1] is reported as 100%.
As for `CCOC(=O)C1=C(C)NC(C)=C(C(=O)OC)C1c1cccc(Cl)c1Cl` (stereo not shown) [Felodipine], in the series with C2BBE1 cells, the “Papp in C2BBE1 cells” value is 22.7 10^−6 cm/s.
Regarding `OC[C@@H](O)[C@@H](O)[C@H](O)[C@H](O)CO` [Mannitol], in the series on C2BBE1 cells, the “Papp in C2BBE1 cells” value is listed as 0.18 10^−6 cm/s. In addition, the “% Absorption in human” value in series [1] was 16%.
With `COCCc1ccc(OCC(O)CNC(C)C)cc1` (stereo not shown) [Metoptolol], the “Papp in C2BBE1 cells” value in the series with C2BBE1 cells is 27 10^−6 cm/s.
For `O=C(O)c1cc(/N=N/c2ccc(O)c(C(=O)O)c2)ccc1O` [Olsalazine], in the series on C2BBE1 cells, the “Papp in C2BBE1 cells” value is 0.11 10^−6 cm/s. Further, the “% Absorption in human” value in series [1] is 2%.
Consider `CC(=O)Nc1ccc(OCC(O)CNC(C)C)cc1` (stereo not shown) [Practolol], for which the “Papp in C2BBE1 cells” value in the series with C2BBE1 cells is recorded as 0.9 10^−6 cm/s.
Turning to `CC(C)NCC(O)COc1cccc2ccccc12` (stereo not shown) [Propranolol], in the series on C2BBE1 cells, the “Papp in C2BBE1 cells” value is on record as 41.9 10^−6 cm/s.
As to `CC(C)(C)NCC(O)c1cc(O)cc(O)c1` (stereo not shown) [Terbutaline], the “Papp in C2BBE1 cells” value in the series on C2BBE1 cells is 0.38 10^−6 cm/s. Also, in series [1], the “% Absorption in human” value is reported as 73%.
Take `C[C@]12CC[C@H]3[C@@H](CCC4=CC(=O)CC[C@@]43C)[C@@H]1CC[C@@H]2O` [Testosterone]: the “% Absorption in human” value in series [1] is 100%.
In the case of `CC(=O)CC(c1ccccc1)c1c(O)c2ccccc2oc1=O` (stereo not shown) [Warfarin], the “Papp in C2BBE1 cells” value in the series with C2BBE1 cells is given as 38.3 10^−6 cm/s.
As for `CC(=O)OCOC(=O)CN(CC(=O)OCOC(C)=O)Cc1cc2c(cc1OC(C)=O)Oc1cc(OC(C)=O)c(CN(CC(=O)OCOC(C)=O)CC(=O)OCOC(C)=O)cc1C21OC(=O)c2ccccc21` [calcein-AM], the “Normalized Mean Fluorescence” value on P-gp (Vector Control cells) is reported as 23.92; at P-gp (shRNA/BCRP clone #801 cells, passage 20, normalized for total protein), 5.08. For the same compound, the “Normalized Mean Fluorescence in the Presence of CSA” value at P-gp (Vector Control cells) is listed as 62.86; on P-gp (shRNA/BCRP clone #801 cells, passage 20), 72.31. Besides, the “% decrease of Calcein-AM compared to vector control” value on P-gp (shRNA/BCRP clone cell #798) was 0.33%; at P-gp (shRNA/BCRP clone cell #799), 31.18%; on P-gp (shRNA/BCRP clone cell #800) it was 58.07%; at P-gp (shRNA/BCRP clone cell #801), 89.37%; at P-gp (shRNA/BCRP clone cell #802), 33.42%. For the same compound, the RFU/μg of protein at P-gp (shRNA/BCRP clone cell #798, 1 μM calcein-AM, passaged 9 times) is listed as 10.13 RFU/μg of protein; at P-gp (shRNA/BCRP clone cell #799, 1 μM calcein-AM, passaged 9 times), 6.99 RFU/μg of protein; on P-gp (shRNA/BCRP clone cell #800, 1 μM calcein-AM, passaged 9 times), 4.26 RFU/μg of protein; on P-gp (shRNA/BCRP clone cell #801, 1 μM calcein-AM, passaged 9 times) it was 1.08 RFU/μg of protein; on P-gp (shRNA/BCRP clone cell #802, 1 μM calcein-AM, passaged 9 times), 6.76 RFU/μg of protein; at P-gp (vector control cells, 1 μM calcein-AM), 10.16 RFU/μg of protein.
“shRNA/MRP2 #3: interfering RNA to MRP2, SEQ ID NO: 17, lentivirally transduced into C2BBe1 cells; clone #3 (CCGGCGTGTATAAATCCAGGACCAACTCGAGTTGGTCCTGGATTTATACACGTTTTTG; listed as Homo Sapiens)”: in the series on MRP2 mRNA, the “Percent decrease in ratio compared to control” value (shortened to “Percent decrease in ratio”) is reported as 15.12% and the “Ratio of MRP2 band intensity to β-actin band intensity” value (shortened to “Ratio of MRP2 band intensity”) was 0.57.
For “shRNA/MRP2 #4: interfering RNA to MRP2, SEQ ID NO: 18, lentivirally transduced into C2BBe1 cells; clone #4 (CCGGCCTGGTGGATAGCAACAATATCTCGAGATATTGTTGCTATCCACCAGGTTTTTG; listed as Homo Sapiens)”, in that order: 15.31% and 0.57.
For “shRNA/MRP2 #5: interfering RNA to MRP2, SEQ ID NO: 19, lentivirally transduced into C2BBe1 cells; clone #5 (CCGGGCATCTGAAGTCCCTGAGAAACTCGAGTTTCTCAGGGACTTCAGATGCTTTTTG; listed as Homo Sapiens)”, in that order: 6.04% and 0.63.
For “shRNA/MRP2 #6: interfering RNA to MRP2, SEQ ID NO: 20, lentivirally transduced into C2BBe1 cells; clone #6 (CCGGGCCGGTGGTCAGATTATCATTCTCGAGAATGATAATCTGACCACCGGCTTTTTG; listed as Homo Sapiens)”, in the series on MRP2 mRNA, the “Percent decrease in ratio” value was −7.59% and the “Ratio of MRP2 band intensity” value is 0.72.
As to “shRNA/MRP2 #7: interfering RNA to MRP2, SEQ ID NO: 21, lentivirally transduced into C2BBe1 cells; clone #7 (CCGGCCATAGCTTCATTCCTGAGTACTCGAGTACTCAGGAATGAAGCTATGGTTTTTG; listed as Homo Sapiens)”, in the series on MRP2 mRNA, the “Percent decrease in ratio” value came out at 19.53% and the “Ratio of MRP2 band intensity” value was 0.54.
